# From ChEMBL document CHEMBL4138123, “Design, synthesis and biological evaluation of novel pyrazolochalcones as potential modulators of PI3K/Akt/mTOR pathway and inducers of apoptosis in breast cancer cells” (Eur J Med Chem, 2017)
# The source made the active and inactive calls. No cut-off for these calls is given here.
# What was measured:
# MCF7 [1] = assay: Downregulation of PI3K protein expression in human MCF7 cells at 2 uM after 24 hrs by Western blot analysis; assay type: functional, cell-based
# MCF7 [2] = assay: Inhibition of PI3K in human MCF7 cells assessed as downregulation of phosphorylated Akt levels at 2 uM after 24 hrs by Western blot analysis; assay type: cell-based
# MCF7 [3] = assay: Inhibition of PI3K in human MCF7 cells assessed as increase in GSK-3beta phosphorylation at Ser9 at 2 uM after 24 hrs by Western blot analysis; assay type: cell-based
# MCF7 [4] = assay: Downregulation of Akt protein expression in human MCF7 cells at 2 uM after 48 hrs by Alexa/DAPI staining-based immunofluorescence analysis; assay type: functional, cell-based
# MCF7 [5] = assay: Downregulation of Akt1 mRNA expression in human MCF7 cells at 2 uM after 48 hrs by qRT-PCR analysis; assay type: functional, cell-based
# MCF7 [6] = assay: Downregulation of Bcl-2 mRNA expression in human MCF7 cells at 2 uM after 48 hrs by qRT-PCR analysis; assay type: functional, cell-based
# MCF7 [7] = assay: Upregulation of PTEN mRNA expression in human MCF7 cells at 2 uM after 48 hrs by qRT-PCR analysis; assay type: functional, cell-based
# MCF7 [8] = assay: Upregulation of BAX mRNA expression in human MCF7 cells at 2 uM after 48 hrs by qRT-PCR analysis; assay type: functional, cell-based
# MCF7 [9] = assay: Upregulation of TP53 mRNA expression in human MCF7 cells at 2 uM after 48 hrs by qRT-PCR analysis; assay type: functional, cell-based
# MCF7 [10] = assay: Induction of intrinsic apoptosis in human MCF7 cells assessed as effect on mitochondrial membrane depolarization at 2 uM after 18 hrs by DiOC6 staining-based FACS analysis (reference value: 2%); assay type: functional
# MCF7 [11] = assay: Cell cycle arrest in human MCF7 cells assessed as accumulation at G0/G1 phase at 2 uM after 24 hrs by flow cytometric analysis (reference value: 18.4%); assay type: functional
# MCF7 [12] = assay: Cell cycle arrest in human MCF7 cells assessed as accumulation at G2/M phase at 2 uM after 24 hrs by flow cytometric analysis (reference value: 2.35%); assay type: functional
# MCF7 [13] = assay: Cell cycle arrest in human MCF7 cells assessed as accumulation at G0/G1 phase at 2 uM after 48 hrs by flow cytometric analysis (reference value: 34.2%); assay type: functional
# MCF7 [14] = assay: Cell cycle arrest in human MCF7 cells assessed as accumulation at S phase at 2 uM after 48 hrs by flow cytometric analysis (reference value: 57.7%); assay type: functional
# MCF7 [15] = assay: Induction of apoptosis in human MCF7 cells assessed as late apoptotic cells at 2 uM after 24 hrs by Annexin-V FITC/propidium iodide staining-based FACS analysis (reference value: 5.4%); assay type: functional
# MCF7 [16] = assay: Induction of apoptosis in human MCF7 cells assessed as viable cells at 2 uM after 24 hrs by Annexin-V FITC/propidium iodide staining-based FACS analysis (reference value: 93.9%); assay type: functional; details: MCF7, 24 h, read-out: Activity
# MCF7 [17] = assay: Induction of intrinsic apoptosis in human MCF7 cells assessed as effect on mitochondrial membrane depolarization at 2 uM after 5 hrs by DiOC6 staining-based FACS analysis relative to control; assay type: functional
SMILES,Activity (MCF7 [1]),phospho-Akt downregulation (active/inactive) (MCF7 [2]),Activity call (increase in GSK-3beta Ser9 phosphorylation) (MCF7 [3]),Activity (MCF7 [4]),Activity (MCF7 [5]),Activity (MCF7 [6]),Activity (MCF7 [7]),Activity (MCF7 [8]),Activity (MCF7 [9]),Activity (MCF7 [10]) [%],Activity (MCF7 [11]) [%],Activity (MCF7 [12]) [%],Activity (MCF7 [13]) [%],Activity (MCF7 [14]) [%],Activity (MCF7 [15]) [%],viability at 2 µM (MCF7 [16]) [%],Activity (MCF7 [17]) [%]
COc1ccc(C(=O)/C=C/c2cc(-c3cc(OC)c(OC)c(OC)c3)n[nH]2)cc1,Active,Active,Active,Active,Active,Active,Active,Active,Active,,,,,,,,
COc1cc(C(=O)/C=C/c2cc(-c3cc(OC)c(OC)c(OC)c3)n[nH]2)cc(OC)c1OC,Active,Active,Active,Active,Active,Active,Active,Active,Active,1,16.6,10.3,62,33,11.2,84.6,
COc1ccc(-c2cc(/C=C/C(=O)c3ccc(OC)c(OC)c3)[nH]n2)cc1,Active,Active,Active,Active,Active,Active,Active,Active,Active,26,15.3,18.6,44.6,38.9,4.4,93.8,
COc1ccc(C(=O)/C=C/c2cc(-c3cc(OC)c(OC)c(OC)c3)n[nH]2)cc1OC,Active,Active,Active,Active,Active,Active,Active,Active,Active,42,30.8,39.9,43.9,43,4.2,94.3,
COc1cc(C(=O)/C=C/c2cc(-c3ccc4c(c3)OCO4)n[nH]2)cc(OC)c1OC,Active,Active,Active,Active,Active,Active,Active,Active,Active,26,35.4,64.6,39,59.1,8.4,89.2,3.4
